Tests used:
[1] = tested on: septic peritonitis via CLP; assay: Survival, WBC and blood culture at 3 hours and 24 hours post insult (CLP); type: in vivo, rat; details: 5 mg/kg IV at end of surgery, n=6/group; for Survival 24 Hs. post insult: % printed only over the 3 hours column
Protocol: Survival at 3 hours and 24 hours post insult. […] Doses were given at the end of the surgery, and animals were followed for 24 hours (Table 1)

Interleukin-6 (IL-6) = assay: Serum IL-6 by ELISA 3 hrs after CLP; type: in vivo, rat; details: natural mixture versus free acid form, FIG. 10
Protocol: Serum samples were obtained from rats (N=5 animals/group) 3 hrs. after (CLP) to establish polymicrobial sepsis, and intravenous injection of saline (control), sophorolipids-natural mixture (SL) or Glyco 23. Serum concentrations of Interleukin-6 (IL-6) were determined using commercial ELISA tests according to manufacturer's instructions. Results were evaluated for statistical significance using ANOVA.

[2] = tested on: septic peritonitis via CLP; assay: CLP model of intra-abdominal sepsis: survival / mortality; type: in vivo, rat; details: same CLP model, FIG. 4
Protocol: Effect of Glyco 23 on mortality in intra-abdominal sepsis. […] The CLP model was chosen for its reproducible mortality rates and its ability to mimic fecal peritonitis.
This dose is well below the LD50 (6-7 gm/kg) of naturally occurring sophorolipids in rodents.^(40,41). Doses were given at the end of the surgery, and animals were followed for 36 hours. Kaplan Meier statistics were performed on survival.

[3] = tested on: standard bacterial isolates; assay: Antibiotic activity, broth microdilution method; type: cell-based; details: clinically relevant concentrations
[4] = tested on: galactosamine-sensitized LPS endotoxic shock; assay: Galactosamine-sensitized LPS endotoxic shock mortality; type: in vivo, mouse
Source text: Therefore, treatment after 2 hr can be compared to treatment after 24 hrs or later in conventional models.

IL-1 = assay: Cytokine responses in vitro: IL-1; type: cell-based; details: compared with the natural mixture responses, FIG. 5
IL-8 = assay: Cytokine responses in vitro: IL-8; type: cell-based; details: compared with the natural mixture responses, FIG. 5
IL-1β = assay: RNase Protection Assay, splenocyte mRNA of CLP-septic rats: IL-1β; type: in vivo, rat; details: 5 mg/kg; splenocytes at 6 hrs; percent control (CLP+vehicle) +/- SEM; P<0.05
Source text: (§1) Data are expressed as percent control (CLP+vehicle)+/−SEM. Treatment groups were significant (p<0.05) compared with control using student's T test. CLP=cecal ligation and puncture; SL=sophorolipid

TGF-β1 = assay: RNase Protection Assay, splenocyte mRNA of CLP-septic rats: TGF-β1; type: in vivo, rat; details: splenocytes at 6 hrs; percent control (CLP+vehicle) +/- SEM; P<0.05
Source text: as §1

[5] = tested on: LPS-induced immunologically relevant genes in mouse macrophages; assay: Microarray analysis of macrophages cultured with LPS +/- Glyco 23; type: cell-based; details: Affymetrix Murine Genome Array U74Av2; LPS maximum set as 100%
Protocol: The maximum level of each gene expression attained in the presence of LPS was set as 100%. […] The analysis was performed using the Affymetrix GeneChip® Murine Genome Array U74Av2 probe array.

CD14 = target: T1, CD14 (Mus musculus, UniProt P10810); assay: Macrophage surface expression by antibody staining: CD14; type: cell-based; details: RAW264.7 macrophages, 10 μg/ml, 30 min
T1 construct: endogenous in cells; host or cells: RAW264.7 macrophages
T1 sequence (P10810 16-336): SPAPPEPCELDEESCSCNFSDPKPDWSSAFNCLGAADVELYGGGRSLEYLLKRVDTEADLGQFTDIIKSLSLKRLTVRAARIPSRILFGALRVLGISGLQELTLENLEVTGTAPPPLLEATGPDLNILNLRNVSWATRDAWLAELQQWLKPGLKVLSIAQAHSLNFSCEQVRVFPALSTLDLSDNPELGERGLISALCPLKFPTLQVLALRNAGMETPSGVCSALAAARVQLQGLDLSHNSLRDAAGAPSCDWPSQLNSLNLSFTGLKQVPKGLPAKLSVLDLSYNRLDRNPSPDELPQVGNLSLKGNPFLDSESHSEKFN
Protocol: (§2) Effects of Glyco 23 on TLR pathway: We studied expression of macrophage CD14 and TLR4 in an in vitro model system using cultured macrophages to relate Glyco 23 mechanism of action to events upstream of cytokine gene expression. […] This observation is significant in light of very recent studies showing that CD14 inhibition using anti-CD14 antibodies in an in vivo pig model of gram-negative sepsis and endotoxemia.^(42)
(§3) Macrophages (RAW264.7) were incubated in the absence or presence of sophorolipids (SL, 10 μg/ml, 30 min, room temperature), washed with phosphate-buffered saline (PBS), and anti-CD 14 or anti-TLR4 antibodies (Santa Cruz Biotechnology, 10 μg/ml, 30 min, room temperature). The cells were then washed with PBS and staining was performed using ABC staining system (Santa Cruz Biotechnology), according to manufacturer's instructions. The cells were then fixed with 1% formaldehyde and examined microscopically. A total of 200 cells were scored in triplicate for each determination, and results expressed as % of total cells counted.

TLR4 = target: T2, TLR4 (Mus musculus, UniProt Q9QUK6); assay: Macrophage surface expression by antibody staining: TLR4; type: cell-based; details: RAW264.7 macrophages, 10 μg/ml, 30 min
T2 construct: endogenous in cells; host or cells: RAW264.7 macrophages
T2 sequence (Q9QUK6 26-835): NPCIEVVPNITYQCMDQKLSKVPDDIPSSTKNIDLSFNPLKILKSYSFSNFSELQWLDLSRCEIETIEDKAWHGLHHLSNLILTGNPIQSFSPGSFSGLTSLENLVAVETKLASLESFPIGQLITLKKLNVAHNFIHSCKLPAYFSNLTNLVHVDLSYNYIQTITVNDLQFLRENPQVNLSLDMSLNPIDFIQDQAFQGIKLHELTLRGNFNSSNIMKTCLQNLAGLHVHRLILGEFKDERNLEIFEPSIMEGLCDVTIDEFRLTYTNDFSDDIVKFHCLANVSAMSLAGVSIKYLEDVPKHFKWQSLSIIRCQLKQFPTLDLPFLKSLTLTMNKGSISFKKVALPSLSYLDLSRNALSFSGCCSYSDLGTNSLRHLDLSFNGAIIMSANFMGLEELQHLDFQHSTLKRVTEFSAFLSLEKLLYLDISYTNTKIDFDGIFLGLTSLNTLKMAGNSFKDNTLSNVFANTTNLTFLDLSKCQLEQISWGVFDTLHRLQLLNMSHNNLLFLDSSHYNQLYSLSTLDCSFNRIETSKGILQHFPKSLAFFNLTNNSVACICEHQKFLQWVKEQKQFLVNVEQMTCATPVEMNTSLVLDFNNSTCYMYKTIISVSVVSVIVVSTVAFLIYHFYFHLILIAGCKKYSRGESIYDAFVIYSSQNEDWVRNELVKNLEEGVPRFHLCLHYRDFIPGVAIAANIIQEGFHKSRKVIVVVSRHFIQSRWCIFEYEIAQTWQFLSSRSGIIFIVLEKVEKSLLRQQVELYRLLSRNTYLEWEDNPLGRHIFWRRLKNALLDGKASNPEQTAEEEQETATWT
Protocol: as §2, §3

[6] = Dosage finding after CLP, tail vein IV; type: in vivo; details: 24 mg/kg IV in 50% ethanol-PBS; possibly due to ethanol concentration
Protocol: Dosage To determine the optimum dose that can be administered to the rats, 3 different doses of Glyco 23, 6 mg/kg, 12 mg/kg and 24 mg/kg of rat body weight (in 50% ethanol-PBS) was administered using tail vein IV to 9 rats following the Cecal Ligation and Puncture (CLP). Control rats (n=3) were injected with 0.5 ml of PBS. […] Rats that received […] and 12 mg/kg doses survived after 24 hours. Blood was obtained before they were sacrificed the next day.

Row | Compound | Survival % 3 hours post insult [1] [%] | Survival 24 Hs. post insult [1] [%] | difference between the inhibitory effects on serum IL-6 (Interleukin-6 (IL-6)) | Mortality rate reduced compared to vehicle [2] [%] | antibiotic activity [3] | Mortality (%) ([4]; LPS at 0 hs, Glyco at 0 hs, n = 9) | Mortality (%) ([4]; LPS at 0 hs, Glyco at 1.5 hs, n = 10) | Mortality (%) ([4]; LPS at 1.5 hs, Glyco at 0 hs, n = 10) | decrease of endotoxin mortality ([4]; administered 2 hr after insult, versus positive control mice) [%] | IL-1 cytokine response suppression (IL-1) | IL-8 cytokine response suppression (IL-8) | reduction in IL-1β expression (mRNA) (IL-1β) | increased expression of TGF-β1 (mRNA) (TGF-β1) [%] | expression of genes upregulated more than 5 fold by LPS [5] | surface expression of CD14 (CD14) | surface expression of TLR4 (TLR4) | time to death of all rats [6] [h]
1 | Lipid A [reference compound] | 50 | 32 |  |  |  |  |  |  |  |  |  |  |  |  |  |  | 
2 | CC(CCCCCC/C=C\CCCCCCCC(=O)O)O[C@@H]1O[C@H](CO)[C@@H](O)[C@H](O)[C@H]1O[C@@H]1O[C@H](CO)[C@@H](O)[C@H](O)[C@H]1O (relative stereo) [Sohorolipid Free Acid derivative, 17-L-[(2′-O-b-D-glucopyranosyl-b-D-glucopyranosyl)-oxy]-cis-9-octadecenoatede-acetylated free acid] | 100 | 90 | No significant difference |  |  |  |  |  |  |  |  |  |  |  |  |  | 
3 | CCOC(=O)CCCCCCC/C=C\CCCCCCC(C)OC1O[C@H](CO)[C@@H](O)[C@H](O)[C@H]1OC1O[C@H](CO)[C@@H](O)[C@H](O)[C@H]1O (relative stereo) [Glyco 23, Ethyl-17-L-[(2′-O-D-glucopyranosyl-D-glucopyranosyl)-oxy]-cis-9-octadecenoate] | 100 | 100 |  | 37 | no significant antibiotic activity | 89 | 30 | 80 | 56 | decreased | decreased | 42.5%±4.7% | 11.7±1.5 | suppressed | interferes with surface expression | interferes with surface expression | ≤ 2

— US20120142621A1 (priority 2010, published 2012)
